Measured values as given in DBAASP.
Values after ≈ are worked out from the molar mass of the structure shown.

Tests used:
[1] = system: Bacillus subtilis IFO 3336; experiment: ≥ marks a high value that may be exact or a test limit, other limits are often not marked, values filed in µg/mL are converted to µM
[2] = system: Escherichia coli IFO 3301; experiment: as above

With `NC(N)=NCCC[C@H](NC(=O)[C@H](Cc1cnc[nH]1)NC(=O)[C@H](CCCN=C(N)N)NC(=O)[C@H](Cc1cnc[nH]1)NC(=O)[C@H](CCCN=C(N)N)NC(=O)[C@H](Cc1cnc[nH]1)NC(=O)[C@H](CCCN=C(N)N)NC(=O)[C@H](Cc1cnc[nH]1)NC(=O)[C@H](CCCN=C(N)N)NC(=O)[C@@H](N)Cc1cnc[nH]1)C(=O)O` [HRHRHRHRHR] the MIC [1] was 6.74 µM (≈ 10 µg/mL) and the MIC [2] was 6.74 µM (≈ 10 µg/mL).
